Measured values from article PMC7566913, “Dual Gene Delivery Reagents From Antiproliferative Alkylphospholipids for Combined Antitumor Therapy” (Frontiers in Chemistry, 2020).

What was measured:
16HBE cells = test: Cytotoxicity, MTT assay, 16HBE; assay type: cell-based, human; conditions: Homo sapiens, 24 h at 37°C
Description: The cells were exposed for a 24-h period to increasing concentration of the pro-APLs, ranging from 500 nM to 1 mM, and cell viability was assessed using the MTT colorimetric assay (Mosmann, [1983]). For the three cell lines, viability decreased in a dose-dependent manner in response to APLs and pro-APLs (Supplementary Figures 2–4). Using the best-fit regression curve method, the IC50 value (concentration that provokes 50% inhibition of the cell growth) was calculated for each compound (Table 4). The three cell lines responded to the compounds with varying sensitivities. […] This is attributed to enzyme-mediated hydrolysis of the pro-APL compounds in the complemented culture medium or in the intracellular compartment, competing with pure pH-controlled chemical hydrolysis. According to its structure, a pro-APL may or not be a substrate for specific lipases and, thus, may or not be hydrolyzed into the parent cytotoxic compound. […]
At confluency, cells were released […]
Cells were seeded into 96-well plates (Becton-Dickinson) at the required density (vide supra) in 100 µL of serum containing culture medium. […]
Mitochondrial activity measurements (MTT assay) was used to assess cytotoxicity of the compounds.
Lipid samples were prepared from a lipid film (3.6 µmol of compound evaporated from an ethanolic solution) hydrated with aqueous glucose 5 % and vigorously vortexed for 20 s before serial dilution in aqueous glucose 5 %. For addition of lipid samples to cell culture, part of the culture medium in the culture plates prepared the day before (25 µL) was removed and replaced by lipid samples (25 µL). Negative control was obtained by adding glucose 5 % to the cells instead of lipoplexes.
After a 24-h incubation period at 37 °C, culture supernatant was removed, cells were carefully washed with PBS and MTT (100 µL, 0.5 mg/mL) in complete culture medium was added. After a 1-h incubation period at 37 °C, the MTT sol ution was removed and DMSO (100 µL) was added to lyse cells and dissolve reduced MTT. Intensity of MTT reduction was then evaluated by measuring absorbance at 492 nm. Viability of cells treated with lipids or lipoplexes was expressed as the percentage of the absorbance measured in untreated cells. Value for each sample is the mean of triplicate determinations (± SD). IC50 values were determined within the 95 % confidence interval using nonlinear regression analysis with the GraphPad Prism software (GraphPad Software, San […]
All data are representative of a triplicate determination and are presented as the mean ± SD.
Statistical significance between treatments was assessed by one-way analysis of variance (ANOVA) followed by the Dunnett multiple comparison test, using the Kaleidagraph 4.5 software (Synergy Software, Reading, PA, USA). Data were considered as statistically significant for p value less than

A549 cells = test: Gene transfer efficiency, pCMV-Gluc luciferase reporter gene assay; assay type: cell-based, human; conditions: A549, N/P 3, 1 eq. DOPE
Description: The efficacy of the pro-APLs to mediate intracellular delivery of a plasmid DNA was examined in A549 human lung epithelial carcinoma cells using the pCMV-Gluc reporter gene encoding the luciferase of Gaussia princeps. This luciferase is secreted by cells and transgene expression can be conveniently assessed by standard bioluminescence measurements on aliquots of the cell culture supernatant, without need for prior cell lysis. Lipoplexes were formulated in glucose 5% at N/P ratios of 1, 3, and 5, with increasing amounts of DOPE as a helper lipid. They were deposited onto cells in the presence of 10% serum and luciferase activity was measured after 24 h (Figure 3). […] The influence of the nature of the pendant hydrophobic arm was also examined.
To investigate the effect of serum on the gene delivery properties of the APL prodrugs, cells were treated with lipoplexes in the presence of an increasing concentration of serum (Figure 5). Two DNA doses were considered.
Figure 5 Transfection efficiency of pro-APLs ME12 (A), PE12 (B), and EE12 (C) as a function of serum content. Pro-APL/DNA complexes were prepared at N/P 3, with 1 molar eq. of DOPE. A549 cells (6,000 cells/well) were seeded into 96-well plates in 100 μL of culture medium containing 10% serum. Twenty-four hours later, cell supernatant was replaced with culture medium complemented with increasing amounts of serum (from 10 to 75%) just before adding the lipoplexes (0.2 and 0.4 μg of DNA per well; light and deep purple bars, resp.). Control (light blue bar) refers to basal bioluminescence measured in untreated cells. […] Statistical significance vs. control. ***p < 0.001, **p < 0.01, *p < 0.05.

H292 cells = test: Antiproliferative effect of pUNO1-hTRAIL vs pCMV-Gluc lipoplexes, MTT, H292; assay type: cell-based, human; conditions: N/P 3, 1 eq. DOPE
Description: Cells were treated with lipoplexes prepared from pro-APLs ME12, PE12, and EE12, with increasing dose of pDNA (0.1–0.4 μg per well). The gold standard gene delivery reagent Lipofectamine® 2000 was assayed in parallel for comparison purpose. In order to distinguish the intrinsic cytotoxic effect of the in situ generated APLs from that resulting from TRAIL expression, pCMV-Gluc was assayed in parallel to pUNO1-hTRAIL. Using pCMV-Gluc, the observed cytotoxicity was assumed to result only from the APL antiproliferative activity, whereas results obtained with pUNO1-hTRAIL are a combination of TRAIL activity and APL antiproliferative effect. […] Though the temptation is to take it as an indicator that functional TRAIL was produced, the difference found was not always statistically significant. The activity profile of the three pro-APLs varied according to the cell line. […]
Figure 8 Antiproliferative effect of lipoplexes prepared from ME12 (A), PE12 (B), EE12 (C), and the two DNA plasmids pCMV-Gluc (light bars) and pUNO1-hTRAIL (dark bars), on the three cell lines. […] Lipofectamine®-based lipoplexes (0.1 μg plasmid/well) were prepared according to the optimized experimental conditions determined following the supplier's instructions. Cell viability was measured by the MTT assay. Basal mitochondrial activity measured in untreated cells is set at 100%. […]

sheep RBC = test: Hemolytic activity, red blood cell leakage assay; conditions: 37°C
Description: To evaluate this hypothesis, the hemolytic activity of the APLs and pro-APLs was measured. Sheep RBC were incubated for 1 h with escalating doses of aqueous dispersion of the compounds at 37°C. At the end of the incubation period, hemoglobin leakage was determined spectrophotometrically.
Thus, in order to better characterize the hemolytic effect of the pro-APLs, the incubation period has been extended and release of hemoglobin was measured after 24 h.
Red blood cell (RBC) leakage assay was carried out according to a previously described procedure
(Evans et al, 2013). RBC were prepared from defibrinated sheep blood. Briefly, blood sample (5 mL) was centrifuged at 500 x g for 5 min. After removal of the yellow upper layer, an equal volume of

CCCCCCCCCCCCCCCCCCOP(=O)(OCOC(=O)CCCCCCCCCCC)OC1CC[N+](C)(C)CC1.[Cl-] (stereo not drawn) [PE12, 4-((((Dodecanoyloxy)methoxy)(octadecyloxy)phosphoryl)oxy)-1,1-dimethylpiperidin-1-ium chloride]
IC50 (16HBE cells): 231 ± 70 µM | Serum content up to which significant transgene expression was mediated (A549 cells; DNA dose 0.2 μg/well): up to 50 % serum | Serum content up to which transfection activity extended (A549 cells; DNA dose 0.4 μg/well): up to 75 % serum | Cell death specifically induced by TRAIL (H292 cells): ca. 45% | HA200 (hemolytic activity at 200 μM) (sheep RBC; 1 h): 7.1 ± 0.9% | HA200 (hemolytic activity at 200 μM) (sheep RBC; 24 h): 20.6 ± 5.9%
